Data from patent publication US8093244B2, “Heteroaryl urea derivatives useful for inhibiting CHK1” (ICOS Corporation, priority 2005, dated 2012).

What was measured:
[1] = system: Chk1; test: Western blot of Chk1 phosphorylation at serines 317 and 345 in HT29 cells (Example 9); type: cell-based, human; settings: 20 μM for two h, 22 additional h
Excerpt: To determine whether an agent is a Chk1 activator, the phosphorylation state of Chk1 can be measured using phospho-specific antibodies to specific phosphorylation sites on Chk1. […] Liu et al., Genes Dev. 14:1448-1459, 2000; Zhao et al., Mol. Cell Biol. 21:4129-4139, 2001; Lopez-Girona et al., Proc. Natl. Acad. Sci. U.S.A. 98:11289-11294, 2001; Guo et al., Genes Dev. 14:2745-2756, 2000; Gatei et al., J. Biol. Chem. 278:14806-14811, 2003; Ng et al., J Biol Chem. 279 (10):8808-19, 2004; Wang et al., Natl Acad Sci USA. 100(26):15387-92, 2003; Stojic et al., Genes Dev. 18(11):1331-44, 2004. These serine sites are phosphorylated by upstream checkpoint kinases, Atm and Atr. Liu et al., Genes Dev. 14:1448-1459, 2000; Zhao et al. Mol. Cell Biol., 21:4129-4139, 2001).
The phosphorylation of these sites in response to a candidate Chk1 activator can be monitored by Western blot or immunohistochemistry of tumor cells. […] HT29 cells are treated with 20 μM gemcitabine for two h. The gemcitabine is washed out of the cell growth media and cells are incubated for 22 additional h. Protein lysates are prepared and separated by an SDS-polyacrylamide gel electrophoresis. Proteins are transferred to PVDF membranes and probed with antisera (Cell Signalling) specific for either phosphorylated serine 317 or 345 (Cell Signalling).

[2] = system: Chk1; test: Western blot of Chk1 phosphorylation at serine 296 in HT29 cells (Example 10); type: cell-based, human; settings: gemcitabine 20 μM for two h, 22 additional h
Procedure: Phosphorylation at this site is not inhibited by wortmannin, which inhibits Atm and Atr. Therefore, the phosphorylation of serine 296 is distinct from phosphorylation at serines 317 and 345. […] Therefore, this approach can be used to monitor Chk1 activity in tumors in response to Chk1 activators. Further, this approach can be used to measure inhibition of Chk1 activation by Chk1 inhibitors.
Thus, HT 29 cells are treated with 20 μM gemcitabine for two h. The gemcitabine is washed out of the cell growth media and cells are incubated for 22 additional h. Protein lysates are prepared and separated by an SDS-polyacrylamide gel electrophoresis. Proteins are transferred to polyvinylidene fluoride (PVDF) membranes and probed with antisera (Cell Signalling) specific for phosphorlyated serine 296 (Cell Signalling). […] Further, HT29 cells treated with selective Chk1 inhibitors for 15 min show no serine 296 phosphorylation.

[3] = system: xenograft tumors of colon tumor cell lines; test: Xenograft animal tumor models (Example 11); type: in vivo, Balb/c (nu/nu) mice; settings: 160 mg/kg intraperitoneal
Excerpt: To test the ability of the Chk1 inhibitors of the invention to enhance the killing of tumors by DNA damaging agents in mice, xenograft tumor models using colon tumor cell lines are established. 5-fluorouracil (5-FU) or gemcitabine can be used as DNA damaging agents. HT29 and Colo205 (human colon carcinoma) and H460 and Calu-6 (nonsmall cell carcinoma) cells can be used to propagate xenograft tumors in 6-8 week old female […] Balb/c (nu/nu) mice. Mice are maintained in a laminar airflow cabinet under pathogen-free conditions and fed sterile food and water ad libitum. Cell lines are grown to subconfluence in RPMI 1640 media supplemented with 10% FBS, 100 U/mL penicillin, 100 μg/mL streptomycin, and 1.5 mM L-glutamine in a 5% CO2 humidified environment. Single cell suspensions are prepared in CMF-PBS, and cell concentration adjusted to 1×10^8 cells/mL. Mice are inoculated subcutaneously (s.c.) on the right flank or right leg with a total of 1×10^7 cells (100 μL). Mice are randomized (5-15 mice/group) into four treatment groups and used when tumors reach a volume of […] (usually 7-11 days post-inoculation). Tumors are measured with vernier calipers and tumor volumes are estimated using the empirically derived formula: tumor volume (cm^3)=tumor length (cm)×tumor width (cm)×tumor depth (cm)/3.3. […] Tumor size is monitored every other day for the duration of the experiment.

SMILES	phosphorylation of Chk1 serines 317 and 345 [1]	phosphorylation of Chk1 serine 296 [2]	tumor growth [3]
Nc1ccn([C@@H]2O[C@H](CO)[C@@H](O)C2(F)F)c(=O)n1 [gemcitabine, 2′,2′-difluoro-2′-deoxycytidine]	results in the phosphorylation of both serines 317 and 345	results in the phosphorylation of serine 296	A delay in tumor growth is observed
COC[C@H]1OC(=O)c2coc3c2[C@@]1(C)C1=C(C3=O)[C@@H]2CCC(=O)[C@@]2(C)C[C@H]1OC(C)=O [wortmannin]	–	not inhibited	–
